Reference: patent publication US20060089375A1, “Pyrazolo[3,4-b] pyridine compounds, and their use as phosphodiesterase inhibitors” (priority 2002, published 2006)

target: T1, PDE4B (human recombinant) (Homo sapiens, UniProt Q07343); assay: Inhibition of PDE4B activity: radioactive SPA or IMAP Fluorescence Polarisation (FP) assay; format: biochemical; details: PDE4B inhibitory activity, one reading or average of ca. 2-6 readings, read-out: PDE4B pIC50 (± about 0.5) (converted)
T1 construct: made in house
T1 sequence (Q07343 1-564 isoform Q07343-2): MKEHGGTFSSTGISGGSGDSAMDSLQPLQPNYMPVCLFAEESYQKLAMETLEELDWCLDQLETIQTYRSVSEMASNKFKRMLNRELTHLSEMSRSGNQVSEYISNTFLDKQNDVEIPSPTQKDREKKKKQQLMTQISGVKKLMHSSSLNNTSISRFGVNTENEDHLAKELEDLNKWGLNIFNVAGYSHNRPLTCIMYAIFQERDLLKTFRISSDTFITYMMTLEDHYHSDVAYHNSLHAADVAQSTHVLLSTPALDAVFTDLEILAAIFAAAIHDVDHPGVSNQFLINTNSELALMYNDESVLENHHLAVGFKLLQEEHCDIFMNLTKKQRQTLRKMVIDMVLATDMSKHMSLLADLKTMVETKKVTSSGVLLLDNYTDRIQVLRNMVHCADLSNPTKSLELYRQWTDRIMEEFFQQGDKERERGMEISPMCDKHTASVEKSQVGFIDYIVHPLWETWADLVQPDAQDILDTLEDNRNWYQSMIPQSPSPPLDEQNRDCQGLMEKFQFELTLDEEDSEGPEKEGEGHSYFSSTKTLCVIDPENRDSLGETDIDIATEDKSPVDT
Source text: Human recombinant PDE4B, in particular the 2B splice variant thereof (HSPDE4B2B), is disclosed in WO 94/20079 and also M. M. McLaughlin et al., “A low Km, rolipram-sensitive, cAMP-specific phosphodiesterase from human brain: cloning and expression of cDNA, biochemical characterisation of recombinant protein, and tissue distribution of mRNA”, J. Biol. Chem., 1993, 268, 6470-6476. For example, in Example 1 of WO 94/20079, human recombinant PDE4B is described as being expressed in the PDE-deficient yeast Saccharomyces cerevisiae strain GL62, e.g. after induction by addition of 150 uM CuSO4, and 100,000×g supernatant fractions of yeast cell lysates are described for use in the harvesting of PDE4B enzyme.
The ability of compounds to inhibit catalytic activity at PDE4B or 4D (human recombinant), PDE3 (from bovine aorta), PDE5 (human recombinant) or PDE6 (from bovine retina) was determined by Scintillation Proximity Assay (SPA) in 96-well format. Test compounds (preferably as a solution in DMSO, e.g. 0.5 to 1 microlitre (ul) volume) were preincubated at ambient temperature (room temperature, e.g. 19-23° C.) in Wallac Isoplates (code 1450-514) with PDE enzyme in 50 mM Tris-HCl buffer pH 7.5, 8.3 mM MgCl2, 1.7 mM EGTA, 0.05% (w/v) bovine serum albumin for 10-30 minutes (usually 30 minutes). The enzyme concentration was adjusted so that no more than 20% hydrolysis of the substrate defined below occurred in control wells without compound, during the incubation. For the PDE3, PDE4B and PDE4D assays, [5′,8-^3H]Adenosine 3′,5′-cyclic phosphate (Amersham Pharmacia Biotech, code TRK.559; or Amersham Biosciences UK Ltd, Pollards Wood, Chalfont St Giles, Buckinghamshire HP8 4SP, UK) was added to give 0.05 uCi per well and ˜10 nM final concentration. For the PDE5 and PDE6 assays, [8-^3H]Guanosine 3′,5′-cyclic phosphate (Amersham Pharmacia Biotech, code TRK.392) was added to give 0.05 uCi per well and ˜36 nM final concentration. Plates, e.g. containing approx. 100 ul volume of assay mixture, were mixed on an orbital shaker for 5 minutes and incubated at ambient temperature for 1 hour. Phosphodiesterase SPA beads (Amersham Pharmacia Biotech, code RPNQ 0150) were added ([…] per well) to terminate the assay. Plates were sealed and shaken and allowed to stand at ambient temperature for 35 minutes to 1 hour (preferably 35 minutes) to allow the beads to settle. Bound radioactive product was measured using a WALLAC TRILUX 1450 Microbeta scintillation counter. For inhibition curves, 10 concentrations (1.5 nM-30 uM) of each compound were assayed. Curves were analysed using ActivityBase and XLfit (ID. Business Solutions Limited, 2 Ocean Court, Surrey Research Park, Guildford, Surrey GU2 7QB, United Kindgom) Results were expressed as pIC50 values.
The ability of compounds to inhibit catalytic activity at PDE4B (human recombinant) or PDE4D (human recombinant) was determined by IMAP Fluorescence Polarisation ([…]) assay (IMAP Explorer kit, available from Molecular Devices Corporation, Sunnydale, Calif., USA; Molecular Devices code: R^8062) in 384-well format. The IMAP FP assay is able to measure PDE activity in an homogenous, non-radioactive assay format. The FP assay uses the ability of immobilised trivalent metal cations, coated onto nanoparticles (tiny beads), to bind the phosphate group of Fl-AMP that is produced on the hydrolysis of fluorescein-labelled (Fl) cyclic adenosine mono-phosphate (Fl-cAMP) to the non-cyclic Fl-AMP form. […] Binding of Fl-AMP product to the beads (coated with the immobilised trivalent cations) slows the rotation of the bound Fl-AMP and leads to an increase in the fluorescence polarisation ratio of parallel to perpendicular light. Inhibition of the PDE reduces/inhibits this signal increase. […]

IC50 | Compound
0.1 to 6.31 nM | CCn1ncc2c(NC3CCC(=O)CC3)c(C(=O)NCc3ccc(C(F)(F)F)cc3)cnc21 [Example 267, 1-Ethyl-4-[(4-oxocyclohexyl)amino]-N-{[4-(trifluoromethyl)phenyl]methyl}-1H-pyrazolo[3,4-b]pyridine-5-carboxamide]
0.1 to 6.31 nM | CCn1ncc2c(NC3CCC(=O)CC3)c(C(=O)NC3Cc4ccccc4C3)cnc21 [Example 271, N-(2,3-Dihydro-1H-inden-2-yl)-1-ethyl-4-[(4-oxocyclohexyl)amino]-1H-pyrazolo[3,4-b]pyridine-5-carboxamide]
0.1 to 6.31 nM | CCn1ncc2c(NC3CCCCC3)c(C(=O)NCc3ccc(OC)cc3)cnc21 [Example 431, 4-(Cyclohexylamino)-1-ethyl-N-{[4-(methyloxy)phenyl]methyl}-1H-pyrazolo[3,4-b]pyridine-5-carboxamide]
0.1 to 6.31 nM | CCn1ncc2c(NC3CCOCC3)c(C(=O)NCc3ccc(C)c(Cl)c3)cnc21 [Example 493, N-[(3-Chloro-4-methylphenyl)methyl]-1-ethyl-4-(tetrahydro-2H-pyran-4-ylamino)-1H-pyrazolo[3,4-b]pyridine-5-carboxamide]
0.1 to 6.31 nM | CCn1ncc2c(NC3CCOCC3)c(C(=O)NCc3ccc(Cl)cc3C)cnc21 [Example 494, N-[(4-Chloro-2-methylphenyl)methyl]-1-ethyl-4-(tetrahydro-2H-pyran-4-ylamino)-1H-pyrazolo[3,4-b]pyridine-5-carboxamide]
0.1 to 6.31 nM | CCn1ncc2c(NC3CCOCC3)c(C(=O)NCc3ccccc3OC(F)F)cnc21 [Example 495, N-({2-[(Difluoromethyl)oxy]phenyl}methyl)-1-ethyl-4-(tetrahydro-2H-pyran-4-ylamino)-1H-pyrazolo[3,4-b]pyridine-5-carboxamide]
0.1 to 6.31 nM | CCn1ncc2c(NC3CCOCC3)c(C(=O)NCc3cccc(OC(F)F)c3)cnc21 [Example 498, N-({3-[(Difluoromethyl)oxy]phenyl}methyl)-1-ethyl-4-(tetrahydro-2H-pyran-4-ylamino)-1H-pyrazolo[3,4-b]pyridine-5-carboxamide]
0.1 to 6.31 nM | CCn1ncc2c(NC3CCOCC3)c(C(=O)NCc3ccc(C)cc3)cnc21 [Example 528, 1-Ethyl-N-[(4-methylphenyl)methyl]-4-(tetrahydro-2H-pyran-4-ylamino)-1H-pyrazolol[3,4-b]pyridine-5-carboxamide]
0.1 to 6.31 nM | CCn1ncc2c(NC3CCOCC3)c(C(=O)NCc3ccc(C(C)C)cc3)cnc21 [Example 551, 1-Ethyl-N-{[4-(1-methylethyl)phenyl]methyl)-4-(tetrahydro-2H-pyran-4-ylamino)-1H-pyrazolo[3,4-b]pyridine-5-carboxamide]
0.1 to 6.31 nM | CCc1cc(CC)cc(CNC(=O)c2cnc3c(cnn3CC)c2NC2CCOCC2)c1 [Example 575, N-[(3,5-Diethylphenyl)methyl]-1-ethyl-4-(tetrahydro-2H-pyran-4-ylamino)-1H-pyrazolo[3,4-b]pyridine-5-carboxamide]
0.1 to 6.31 nM | CCn1ncc2c(NC3CCOCC3)c(C(=O)NCc3cc(Cl)cc(Cl)c3)cnc21 [Example 581, N-[(3,5-Dichlorophenyl)methyl]-1-ethyl-4-(tetrahydro-2H-pyran-4-ylamino)-1H-pyrazolo[3,4-b]pyridine-5-carboxamide]
0.1 to 6.31 nM | CCn1ncc2c(NC3CCOCC3)c(C(=O)NCc3ccc(C)cc3C)cnc21 [Example 584, N-[(2,4-Dimethylphenyl)methyl]-1-ethyl-4-(tetrahydro-2H-pyran-4-ylamino)-1H-pyrazolo[3,4-b]pyridine-5-carboxamide]
12.6 to 100 nM | CCn1ncc2c(NC3CCOCC3)c(C(=O)NCc3ccccn3)cnc21 [Example 600, 1-Ethyl-N-(2-pyridinylmethyl)-4-(tetrahydro-2H-pyran-4-ylamino)-1H-pyrazolo[3,4-b]pyridine-5-carboxamide]
0.1 to 6.31 nM | CCc1ccccc1CNC(=O)c1cnc2c(cnn2CC)c1NC1CCOCC1 [Example 619, 1-Ethyl-N-[(2-ethylphenyl)methyl]-4-(tetrahydro-2H-pyran-4-ylamino)-1H-pyrazolo[3,4-b]pyridine-5-carboxamide]
0.1 to 6.31 nM | CCn1ncc2c(NC3CCOCC3)c(C(=O)NCc3ccc(Cl)cc3F)cnc21 [Example 622, N-[(4-Chloro-2-fluorophenyl)methyl]-1-ethyl-4-(tetrahydro-2H-pyran-4-ylamino)-IH-pyrazolo[3,4-b]pyridine-5-carboxamide]
0.1 to 6.31 nM | CCn1ncc2c(NC3CCOCC3)c(C(=O)NCc3cc(C)cc(C)c3)cnc21 [Example 624, N-[(3,5-Dimethylphenyl)methyl]-1-ethyl-4-(tetrahydro-2H-pyran-4-ylamino)-1H-pyrazolo[3,4-b]pyridine-5-carboxamide]
0.1 to 6.31 nM | CCn1ncc2c(NC3CCOCC3)c(C(=O)NCc3cccc(C)c3C)cnc21 [Example 625, N-[(2,3-Dimethylphenyl)methyl]-1-ethyl-4-(tetrahydro-2H-pyran-4-ylamino)-1H-pyrazolo[3,4-b]pyridine-5-carboxamide]
0.1 to 6.31 nM | CCn1ncc2c(NC3CCOCC3)c(C(=O)NCc3cccc(Cl)c3Cl)cnc21 [Example 626, N-[(2,3-Dichlorophenyl)methyl]-1-ethyl-4-(tetrahydro-2H-pyran-4-ylamino)-1H-pyrazolo[3,4-b]pyridine-5-carboxamide]
0.1 to 6.31 nM | CCn1ncc2c(NC3CCOCC3)c(C(=O)NCc3ccc(Br)cc3)cnc21 [Example 628, N-[(4-Bromophenyl)methyl]-1-ethyl-4-(tetrahydro-2H-pyran-4-ylamino)-1H-pyrazolo[3,4-b]pyridine-5-carboxamide]
0.1 to 6.31 nM | CCn1ncc2c(NC3CCOCC3)c(C(=O)NCc3ccc(I)cc3)cnc21 [Example 630]
0.1 to 6.31 nM | CCc1ccc(CNC(=O)c2cnc3c(cnn3CC)c2NC2CCOCC2)cc1 [Example 636, 1-Ethyl-N-[(4-ethylphenyl)methyl]-4-(tetrahydro-2H-pyran-4-ylamino)-1H-pyrazolo[3,4-b]pyridine-5-carboxamide]
0.1 to 6.31 nM | CCn1ncc2c(NC3CCOCC3)c(C(=O)NCc3ccccc3I)cnc21 [Example 638, 1-Ethyl-N-[(2-iodophenyl)methyl]-4-(tetrahydro-2H-pyran-4-ylamino)-1H-pyrazolo[3,4-b]pyridine-5-carboxamide]
0.1 to 6.31 nM | CCn1ncc2c(NC3CCOCC3)c(C(=O)NCc3c(CO)ccc(Cl)c3Cl)cnc21 [Example 643, N-{[2,3-Dichloro-6-(hydroxymethyl)phenyl]methyl}-1-ethyl-4-(tetrahydro-2H-pyran-4-ylamino)-1H-pyrazolo[3,4-b]pyridine-5-carboxamide]
0.1 to 6.31 nM | CCn1ncc2c(NC3CCOCC3)c(C(=O)NCc3c(C)cc(Cl)cc3Cl)cnc21 [Example 644, N-[(2,4-Dichloro-6-methylphenyl)methyl]-1-ethyl-4-(tetrahydro-2H-pyran-4-ylamino)-1H-pyrazolo[3,4-b]pyridine-5-carboxamide]
0.1 to 6.31 nM | CCn1ncc2c(NC3CCOCC3)c(C(=O)NCc3ccc(CC(C)C)cc3)cnc21 [Example 645, 1-Ethyl-N-{[4-(2-methylpropyl)phenyl]methyl}-4-(tetrahydro-2H-pyran-4-ylamino)-1H-pyrazolo[3,4-b]pyridine-5-carboxamide]
0.1 to 6.31 nM | CCn1ncc2c(NC3CCC(=NO)CC3)c(C(=O)NCc3ccc(OC)cc3)cnc21 (centres unmarked) [Example 653, 1-Ethyl-4-{[4-(hydroxyimino)cyclohexyl]amino}-N-{[4-(methyloxy)phenyl]methyl}-1H-pyrazolo[3,4-b]pyridine-5-carboxamide]
